Columns and labels:
[1] = target: T1, 5-hydroxytryptamine receptor 2C (Sus scrofa, UniProt G7ZKZ7)
T1 sequence (G7ZKZ7 whole entry): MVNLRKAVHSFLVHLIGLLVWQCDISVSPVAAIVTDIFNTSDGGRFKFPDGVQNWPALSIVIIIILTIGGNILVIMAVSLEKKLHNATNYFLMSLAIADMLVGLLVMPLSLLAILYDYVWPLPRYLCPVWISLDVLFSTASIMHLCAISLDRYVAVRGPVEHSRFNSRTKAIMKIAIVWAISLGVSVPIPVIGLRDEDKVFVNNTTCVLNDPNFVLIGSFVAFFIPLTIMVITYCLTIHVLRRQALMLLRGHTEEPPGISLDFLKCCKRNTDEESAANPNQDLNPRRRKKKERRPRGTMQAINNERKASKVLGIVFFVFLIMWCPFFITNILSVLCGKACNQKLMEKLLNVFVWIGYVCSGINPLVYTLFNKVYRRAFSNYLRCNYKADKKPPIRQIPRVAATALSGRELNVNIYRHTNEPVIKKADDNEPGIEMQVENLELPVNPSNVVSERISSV

[2] = target: 5-hydroxytryptamine receptor 2A (Rattus norvegicus, UniProt P14842)
Chain of 5-hydroxytryptamine receptor 2A (P14842 whole entry): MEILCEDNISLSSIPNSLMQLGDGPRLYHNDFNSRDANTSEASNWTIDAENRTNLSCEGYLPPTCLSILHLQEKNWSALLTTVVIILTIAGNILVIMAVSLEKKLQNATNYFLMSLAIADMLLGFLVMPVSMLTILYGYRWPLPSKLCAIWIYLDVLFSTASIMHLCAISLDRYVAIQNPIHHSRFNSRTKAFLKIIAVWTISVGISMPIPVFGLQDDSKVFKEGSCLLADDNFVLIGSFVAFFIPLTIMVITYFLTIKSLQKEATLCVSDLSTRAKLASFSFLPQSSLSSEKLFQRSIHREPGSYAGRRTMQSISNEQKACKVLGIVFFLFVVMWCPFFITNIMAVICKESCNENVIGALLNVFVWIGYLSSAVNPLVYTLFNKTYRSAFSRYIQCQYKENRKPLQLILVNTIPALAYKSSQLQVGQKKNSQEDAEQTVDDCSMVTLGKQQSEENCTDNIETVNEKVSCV

[3] = target: T2, 5-hydroxytryptamine receptor 3A (Rattus norvegicus, UniProt P35563)
T2 sequence (P35563 whole entry): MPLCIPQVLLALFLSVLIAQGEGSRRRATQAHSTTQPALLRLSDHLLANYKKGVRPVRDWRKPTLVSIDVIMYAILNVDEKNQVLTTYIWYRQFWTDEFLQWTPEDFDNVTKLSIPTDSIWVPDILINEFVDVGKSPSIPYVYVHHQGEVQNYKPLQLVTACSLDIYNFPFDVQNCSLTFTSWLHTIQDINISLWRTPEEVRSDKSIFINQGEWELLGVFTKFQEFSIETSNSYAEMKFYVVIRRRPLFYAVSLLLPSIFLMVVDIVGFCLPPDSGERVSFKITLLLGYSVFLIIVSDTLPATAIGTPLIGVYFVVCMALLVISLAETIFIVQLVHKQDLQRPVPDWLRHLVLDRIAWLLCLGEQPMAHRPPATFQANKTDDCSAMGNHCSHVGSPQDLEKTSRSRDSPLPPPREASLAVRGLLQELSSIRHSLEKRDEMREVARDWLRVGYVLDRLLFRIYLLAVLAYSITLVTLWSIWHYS

[4] = target: 5-hydroxytryptamine receptor 1B (Rattus norvegicus, UniProt P28564)
Chain of 5-hydroxytryptamine receptor 1B (P28564 whole entry): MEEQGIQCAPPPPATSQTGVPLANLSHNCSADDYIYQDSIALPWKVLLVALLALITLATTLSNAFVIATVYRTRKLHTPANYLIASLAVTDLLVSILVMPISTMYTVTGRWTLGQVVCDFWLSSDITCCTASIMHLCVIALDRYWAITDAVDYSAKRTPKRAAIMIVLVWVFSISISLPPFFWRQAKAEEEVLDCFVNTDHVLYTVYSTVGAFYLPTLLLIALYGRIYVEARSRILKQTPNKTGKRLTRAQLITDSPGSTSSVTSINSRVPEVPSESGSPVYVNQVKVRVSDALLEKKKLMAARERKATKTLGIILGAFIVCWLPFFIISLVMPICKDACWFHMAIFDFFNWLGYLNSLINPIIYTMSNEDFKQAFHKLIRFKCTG

[5] = target: T3, 5-hydroxytryptamine receptor 1A (Rattus norvegicus, UniProt P19327)
T3 sequence (P19327 whole entry): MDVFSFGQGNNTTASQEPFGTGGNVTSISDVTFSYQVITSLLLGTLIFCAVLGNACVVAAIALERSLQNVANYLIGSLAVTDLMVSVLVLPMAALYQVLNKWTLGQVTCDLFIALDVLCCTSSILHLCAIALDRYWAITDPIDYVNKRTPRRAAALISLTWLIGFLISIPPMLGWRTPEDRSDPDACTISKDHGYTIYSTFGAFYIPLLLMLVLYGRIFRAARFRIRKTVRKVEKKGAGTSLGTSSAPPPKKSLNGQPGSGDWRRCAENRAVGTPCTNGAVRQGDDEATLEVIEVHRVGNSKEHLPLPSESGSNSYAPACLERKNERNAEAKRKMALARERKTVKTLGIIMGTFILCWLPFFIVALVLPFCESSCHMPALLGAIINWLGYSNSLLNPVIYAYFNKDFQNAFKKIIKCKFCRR

SMILES | Ki [1] | Ki [2] | Ki [3] | Ki [4] | Ki [5]
c1ccc2c(c1)CC(N1CCN(c3cccc4c3OCCO4)CC1)C2 [NSC_132787] | 537 nM | 214 nM | 1000 nM | 1740 nM | 
O=C(CCCN1CCC2(CC1)C(=O)NCN2c1ccccc1)c1ccc(F)cc1 [8-[4-(4-fluorophenyl)-4-oxidanylidene-butyl]-1-phenyl-1,3,8-triazaspiro[4.5]decan-4-one] | 977 nM |  |  | > 10000 nM | 115 nM
C=CCc1ccccc1OC[C@@H](O)CNC(C)C [ALPRENOLOL,(-)] | 4470 nM | 5010 nM |  | 100 nM | 
c1ccc2c(c1)CCC2CCN1CCN(c2cccc3c2OCCO3)CC1 (configuration not stated) [CAS_182596] | 115 nM | 191 nM | 53.7 nM | 417 nM | 1.51 nM
COc1ccccc1N1CCN(CCCCN2C(=O)c3ccccc3C2=O)CC1 [2-{4-[4-(2-Methoxy-phenyl)-piperazin-1-yl]-butyl}-isoindole-1,3-dione] | 776 nM | 646 nM |  | 1070 nM | 
O=C1CC2(CCCC2)CC(=O)N1CCNCC1COc2ccccc2O1 (configuration not stated) [CAS_124756-23-6] | 427 nM | 1620 nM |  | 4570 nM | 1.25 nM
c1ccc2c(c1)CC2CCN1CCN(c2cccc3c2OCCO3)CC1 (configuration not stated) [NSC_182595] | 151 nM | 141 nM | 372 nM | 603 nM | 0.61 nM
COC(=O)c1cc2c(N3CCN(CCCCN4C(=O)c5ccccc5S4(=O)=O)CC3)cccc2[nH]1 [CAS_141533-35-9] |  |  |  |  | 1.58 nM
COc1ccccc1N1CCN(C[C@@H](C(=O)NC(C)(C)C)c2ccccc2)CC1 [WAY 100135] | 3470 nM | 3470 nM | 1000 nM | > 10000 nM | 32.4 nM
CC(C)(C)NCC(O)COc1cccc2c1SCCC2 (single isomer, unassigned; (-)) [TERTATOLOL(-)] | 363 nM | 1450 nM | 1000 nM | 182 nM | 8.31 nM
c1cc2c(c(N3CCNCC3)c1)OCCO2 [1-(2,3-Dihydro-benzo[1,4]dioxin-5-yl)-piperazine] | 170 nM | 1380 nM | 1000 nM | 53.7 nM | 9.33 nM
COc1ccccc1N1CCN(CCN2C(=O)CC3(CCCC3)CC2=O)CC1 | 234 nM | 1740 nM | 1000 nM | > 10000 nM | 

From BindingDB's records for PubMed 8301575 (Institut De Recherches Servier, 1994)
